Measured values reported in patent publication US5935636A, “Trehalose and its production and use” (Kabushiki Kaisha Hayashibara Seibutsu Kagaku Kenkyujo, priority 1994, dated 1999).
Structures can show the parent of a compound that is named as a salt. Where two headings read alike, the source gives them in different places.

Assays:
[1] = target: T1, maltose/trehalose conversion enzyme derived from Pimelobacter species R48 (Pimelobacter sp., UniProt P72235); assay: Inhibition of enzymatic activity; type: biochemical
T1 construct: The culture obtained in Experiment 1 was centrifugally separated to collect the cells; made in house; host or cells: native producer Pimelobacter species R48 (FERM BP-4315), purified from disrupted cells
T1 sequence (P72235 1-573): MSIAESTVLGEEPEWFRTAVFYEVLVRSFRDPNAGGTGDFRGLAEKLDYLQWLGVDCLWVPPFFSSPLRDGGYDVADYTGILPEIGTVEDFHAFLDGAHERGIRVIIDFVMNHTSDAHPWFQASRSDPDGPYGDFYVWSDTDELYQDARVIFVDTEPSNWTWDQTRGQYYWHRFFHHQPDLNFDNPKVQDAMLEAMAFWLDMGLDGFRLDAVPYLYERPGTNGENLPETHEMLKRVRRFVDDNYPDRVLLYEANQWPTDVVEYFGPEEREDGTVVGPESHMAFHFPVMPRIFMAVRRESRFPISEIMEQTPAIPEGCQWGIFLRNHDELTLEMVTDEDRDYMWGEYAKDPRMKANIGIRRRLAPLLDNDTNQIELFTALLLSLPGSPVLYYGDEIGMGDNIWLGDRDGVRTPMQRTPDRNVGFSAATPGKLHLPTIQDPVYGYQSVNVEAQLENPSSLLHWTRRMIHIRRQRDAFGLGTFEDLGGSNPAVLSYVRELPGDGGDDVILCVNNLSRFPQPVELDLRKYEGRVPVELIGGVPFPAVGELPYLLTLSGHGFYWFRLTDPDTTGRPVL
Method: (§1) Maltose/trehalose conversion enzymes are assayed as follows: 1 ml of 20 w/v % maltose as substrate in 10 mM phosphate buffer (pH7.0) is added with 1 ml enzyme liquid, allowed to react at 25° C., 35° C. or 60° C. for 60 minutes and heated at 100° C. for 10 minutes to suspend the reaction. The reaction liquid is accurately diluted by 11-times in 50 mM phosphate buffer (pH7.5) and 0.4 ml of the diluted liquid is added with 0.1 ml of 1 unit/ml trehalase solution, incubated at 45° C. for 120 minutes and determined for glucose level by the glucose oxidase method. […] The amount of the trehalose formed by maltose/trehalose conversion enzyme is estimated with the increased amount of glucose as determined by the above measurement and one unit of the enzyme is defined as the amount of enzyme that forms one micromole of trehalose for one minute.
(§2) Effects of temperature and pH on the activity of the enzyme were investigated in accordance with the assay method. […] The thermal stability of the enzyme was determined by incubating the enzyme in 50 mM phosphate buffer (pH7.0) at different temperatures for 60 minutes, cooling with water and assaying the residual activities. While the pH stability was determined by incubating at 20° C. for 60 minutes in 50 mM phosphate buffer with different pH levels, adjusting to pH7.0 and assaying the residual enzyme activities.

[2] = test system: maltose/trehalose conversion enzyme derived from Pseudomonas putida H262; type: biochemical
Method: as §1
as §2, with “35°” for “20°”

[3] = target: T2, maltose/trehalose conversion enzyme derived from Thermus aquaticus (ATCC33923) (Thermus thermophilus, UniProt O06458); assay: Inhibition of enzymatic activity; type: biochemical
T2 construct: The culture obtained in Experiment 15 was centrifugally separated to collect the cells; made in house; host or cells: native producer Thermus aquaticus (ATCC33923), purified from disrupted cells
T2 sequence (O06458 1-963): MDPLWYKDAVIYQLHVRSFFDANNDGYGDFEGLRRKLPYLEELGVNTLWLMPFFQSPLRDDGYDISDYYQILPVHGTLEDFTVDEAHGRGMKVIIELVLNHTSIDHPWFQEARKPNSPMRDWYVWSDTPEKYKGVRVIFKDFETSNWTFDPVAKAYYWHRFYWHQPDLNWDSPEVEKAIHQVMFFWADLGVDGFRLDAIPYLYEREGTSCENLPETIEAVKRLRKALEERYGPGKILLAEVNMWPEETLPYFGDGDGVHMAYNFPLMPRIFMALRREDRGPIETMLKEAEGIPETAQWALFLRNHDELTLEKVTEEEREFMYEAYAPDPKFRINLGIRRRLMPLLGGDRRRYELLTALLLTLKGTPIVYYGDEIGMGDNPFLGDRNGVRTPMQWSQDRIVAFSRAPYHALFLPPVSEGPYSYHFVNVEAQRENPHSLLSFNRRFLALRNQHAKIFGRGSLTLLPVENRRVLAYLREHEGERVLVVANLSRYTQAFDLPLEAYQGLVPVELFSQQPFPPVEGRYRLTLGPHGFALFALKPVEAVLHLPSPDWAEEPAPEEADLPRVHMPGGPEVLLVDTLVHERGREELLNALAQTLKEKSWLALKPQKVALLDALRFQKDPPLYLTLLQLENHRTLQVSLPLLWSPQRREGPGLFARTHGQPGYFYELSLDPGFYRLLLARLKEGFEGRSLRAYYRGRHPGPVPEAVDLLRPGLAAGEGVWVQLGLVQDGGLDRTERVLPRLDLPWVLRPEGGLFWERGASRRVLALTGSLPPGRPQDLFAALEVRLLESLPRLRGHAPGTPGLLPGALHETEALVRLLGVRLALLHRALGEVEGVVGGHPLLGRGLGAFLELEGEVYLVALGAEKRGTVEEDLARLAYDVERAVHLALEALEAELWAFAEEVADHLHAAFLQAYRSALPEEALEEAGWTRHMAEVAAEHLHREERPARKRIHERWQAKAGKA
Method: as §1
as §2, with “60°” for “20°”

[4] = test system: partially-purified enzymes derived from conventional microorganisms of the genus Thermus; assay: Action on a variety of saccharides, partially-purified enzymes; type: biochemical; conditions: method of Experiment 18
Method: Among conventional microorganisms, the specified microorganisms which had been confirmed for production of the maltose/trehalose conversion enzyme according to the present invention were cultivated in flasks for 48 hours in accordance with the method in Experiment 15. Respective cultures were checked for enzymatic activity and then subjected to cell disrupter in accordance with the method in Experiment 16 and the supernatants were dialyzed to obtain partially-purified enzymes which were then investigated for properties in accordance with the method in Experiment 17.

[5] = target: T3, purified maltose/trehalose conversion enzyme from Pimelobacter species R48 (Pimelobacter sp., UniProt P72235); assay: Action on a variety of saccharides (substrate feasibility, TLC); type: biochemical; conditions: 20° C., pH7.0, 24 hours
T3 construct: The culture obtained in Experiment 1 was centrifugally separated to collect the cells; made in house; host or cells: native producer Pimelobacter species R48 (FERM BP-4315), purified from disrupted cells
T3 sequence (P72235 1-573): T1 sequence (P72235 1-573)
Method: (§3) A variety of saccharides were tested for feasibility as substrate.
(§4) Each solution was added with 2 units/g substrate solid of a purified maltose/trehalose conversion enzyme obtained by the method in Experiment 2, adjusted to give respective substrate concentrations of 5 w/v % and reacted at 20° C. and pH7.0 for 24 hours. Before and after the reaction the solutions were subjected to thin-layer chromatography (TLC) on "[…] 60", an aluminum plate, width and length of 20 cm respectively, commercialized by Merck & Co., Inc., New Jersey, USA, to check the enzymatic action on respective saccharides. TLC was developed at ambient temperature with a mixture solvent of 1-butanol, pyridine and water (6:4:1 by volume). Coloration was carried out by first spraying 20% sulfuric acid/methanol solution, then heating at 110° C. for 10 minutes.

[6] = test system: mice; assay: Acute toxicity test; type: in vivo; conditions: orally administered in mice, possible highest dose
Method: An acute toxicity test was conducted on a high-purity trehalose prepared in Example A-6, where it was orally administered in mice. As the result, trehalose was a low toxic substance causing no death even in the possible highest dose. Thus its LD50 would be briefly 50 g/kg or higher.

[7] = Physicochemical properties of trehalose preparations: solubility; conditions: in 25° C. water
Method: A high-purity trehalose prepared by the method in Experiment 8 was tested for physicochemical properties. […] These physical values were in good agreement with those of a simultaneously tested commercially-available crystalline trehalose hydrate, a product of Wako Pure Chemical Industries, Ltd., Osaka, Japan.

[8] = test system: purified enzyme from Pseudomonas putida H262; assay: Action on a variety of saccharides (substrate feasibility, TLC); type: biochemical; conditions: method of Experiment 4, reaction temperature 35° C.
Method: as §3, §4
A variety of saccharides were tested for feasibility as substrate for the purified enzyme from Pseudomonas putida H262 obtained in Experiment 10 in accordance with the method in Experiment 4 except that the reaction temperature was set to 35° C. As the result, like the enzyme from Pimelobacter species R48, the enzyme from Pseudomonas putida H262 acted on only maltose and trehalose to convert maltose to trehalose as well as to convert trehalose to maltose.

[9] = Test for assimilation in vivo (blood sugar and insulin levels); conditions: healthy three men
Method: In accordance with the method reported by Atsuji et al., Rinsho Eiyo (Clinical Nutrition), Vol.41, No.2, pp.200-208 (1972), 30g of the high-purity trehalose, purity of 99.8%, prepared in Experiment 8 was prepared into 20 w/v % aqueous solution and orally administered to healthy three men, age of 26, 27 and 30 years, after which their bloods were periodically sampled and measured for blood sugar and insulin levels. Glucose was used as control. […] Thus the trehalose and saccharide containing the same are suitable as saccharide source for energy supplement.

[10] = 30 g as 20 w/v % aqueous solution, oral

Compound: NC(CO)(CO)CO [Tris-HCl buffer, Tris-HCl]
- Inhibition of activity [1]: Inhibited
- Inhibition of activity [2]: Inhibited
- Inhibition of activity [3]: Inhibited

Compound: [Hg+2] [Hg^2+]
- Inhibition of activity ([1]; 1 mM): Inhibited
- Inhibition of activity ([2]; 1 mM): Inhibited
- Inhibition of activity ([3]; 1 mM): Inhibited

Compound: [Cu+2] [Cu^2+]
- Inhibition of activity ([1]; 1 mM): Inhibited
- Inhibition of activity ([2]; 1 mM): Inhibited
- Inhibition of activity ([3]; 1 mM): Inhibited
- Inhibition of activity ([3]; 1 mM, listed as C^2+): inhibited

Compound: OC[C@H]1O[C@H](O[C@H]2O[C@H](CO)[C@@H](O)[C@H](O)[C@H]2O)[C@H](O)[C@@H](O)[C@@H]1O [trehalose, alpha,alpha-trehalose]
- action of the enzymes on saccharides (in words) [4]: acted on
- action of the enzyme on saccharides (in words) [5]: acted on
- death in acute toxicity test [6]: no death
- solubility as anhydrous substance [7]: 77.0 g
- action of the enzyme on saccharides (in words) [8]: acted on
- time at which blood sugar level reached maximum after administration [9, 10]: 0.5 to 1 h
- time at which insulin level reached maximum after administration [9, 10]: 0.5 to 1 h
- digestion, absorption and utilization (in words) ([9]; 30 g oral, glucose as control): readily digested and absorbed and then metabolized and utilized as energy source

Compound: OC[C@H]1O[C@H](O[C@H]2[C@H](O)[C@@H](O)[C@H](O)O[C@@H]2CO)[C@H](O)[C@@H](O)[C@@H]1O [Maltose]
- action of the enzymes on saccharides (in words) [4]: acted on
- action of the enzyme on saccharides (in words) [5]: acted on
- action of the enzyme on saccharides (in words) [8]: acted on
